Consider 15 compounds from patent publication US11912679B2, “Aryl alkynamide derivatives” (Astellas Pharma, Inc., priority 2022, dated 2024).

One assay relates to IRF pathway of THP-1. Nature of the assay: Test on the activity of IRF pathway of THP-1 (THP1-Dual reporter cells stimulated with 2'3'-cGAMP). It counts as cell-based. Conditions: Homo sapiens, PMA-treated, 2'3'-cGAMP 5 ug/mL, QUANTI-Luc readout, read-out: IC50 of inhibition of the activity of IRF pathway. As to the method: 0.3 uM of PMA (phorbol myristate acetate, SIGMA, P1585) was added to THP1-Dual™ cells (NF-κB-SEAP IRF-Luc Reporter Monocytes, Invivogen, thpd-nfis), and the cells were cultured at 37° C. for 1 day in RPMI1640 with 10% Fetal Bovine Serum (FBS). A compound with a known concentration was added, and the cells were incubated at room temperature for 1 hour. Mammalian (non-canonical) CDN, cyclic [G(2′,5′)pA(3′,5′)p] (2′3′-cGAMP, Invivogen, tlrl-nacga23) was added to a final concentration of 5 ug/mL, and the cells were cultured at 37° C. On the following day, QUANTI-Luc™ (Secreted luciferase detection medium, Invivogen, rep-qlc) was added to the culture solution and the activity of IRF pathway was measured using a microplate reader. The inhibition ratio at each concentration was determined, where the activity of IRF pathway with no addition of the test compound or 2′3′-cGAMP was defined as 100% inhibition and the activity of IRF pathway with no addition of the test compound and with addition of 2′3′-cGAMP was defined as 0% inhibition. The IC50 value was calculated by sigmoid […] model non-linear regression analysis.

The subject of another assay is IFNβ production. Nature of the assay: Test on IFNβ production in mice plasma (DMXAA-induced). The format is in vivo. Conditions: male C57BL/6J mice, 1 mg/kg oral, DMXAA 20 mg/kg i.p. after 1 hour, plasma 4 hours later. Here is the method:
Male C57BL/6J mice (8-12-weeks-old) were administered orally either vehicle or 1 mg/kg of test compounds. After 1 hour, 5,6-Dimethylxanthenone-4-acetic acid (DMXAA) (BLD Pharmatech Ltd, BD126695) was administered intraperitoneally at a dose of 20 mg/kg. Four hours later, the mice were euthanized, and the plasma was collected. Plasma concentration of IFNβ was measured by an enzyme-linked immunosorbent assay method using an AlphaLISA Mouse IFNβ Detection Kit (Parkin Elmer, AL586C), and the inhibition ratio to the vehicle administration group was calculated.

The subject of another assay is saliva production. Briefly: Test on drug-induced Sjogren's syndrome-like salivary dysfunction in mice. Conditions: female C57BL/6J mice, DMXAA 20 mg/kg s.c. four times weekly, test compound oral once a day for 8 days. It counts as in vivo. Here is the method:
Female C57BL/6J mice (8-10-weeks-old) were injected subcutaneously with 20 mg/kg of DMXAA or its vehicle, 5% NaHCO3, four times at weekly intervals. From the day after the last DMXAA challenge, mice were orally administered the test compound or its vehicle once a day for 8 days. On the following day, saliva was collected from mice using a cotton swab under awake conditions, and saliva weight during 15 min was measured and evaluated as an indicator of salivary gland function.

`O=C(C#Cc1ccc(-c2ccccc2)c(C(F)(F)F)c1)N1C[C@@H](O)[C@@H](O)C1` [Example 33, 1-[(3R,4S)-3,4-dihydroxypyrrolidin-1-yl]-3-[2-(trifluoromethyl)[1,1′-biphenyl]-4-yl]prop-2-yn-1-one]: the 50% inhibitory concentration (IC50) (in general, the point on the concentration scale where inhibition reaches its midpoint) in the assay with IRF pathway of THP-1 turned out to be 136 nM. Further, the “Inh (%): inhibition ratio of the production of IFNβ to the vehicle administration group” value (from here on “Inh (%): inhibition ratio”) with IFNβ production came to 92%. Besides, the “saliva production (saliva weight during 15 min)” value (shortened to “saliva production”) in the assay on saliva production is given as “significantly improved saliva production”.

In the case of `NC(=O)C1CCN(C(=O)C#Cc2ccc(-c3ccccc3)c(C(F)(F)F)c2)CC1` [Example 34, 1-{3-[2-(trifluoromethyl)[1,1′-biphenyl]-4-yl]prop-2-ynoyl}piperidine-4-carboxamide], the 50% inhibitory concentration (IC50) in the assay on IRF pathway of THP-1 amounted to 230 nM. In the assay on IFNβ production, the “Inh (%): inhibition ratio” value was determined as 90%. Also, the “saliva production” value with saliva production is recorded as “significantly improved saliva production”.

Take `O=C(C#Cc1ccc(-c2ccccc2)c(C(F)(F)F)c1)NC[C@H](O)CO` [Example 35, N-[(2S)-2,3-dihydroxypropyl]-3-[2-(trifluoromethyl)[1,1′-biphenyl]-4-yl]prop-2-ynamide]: the IC50 in the assay with IRF pathway of THP-1 turned out to be 466 nM. For the same compound, in the assay on IFNβ production, the “Inh (%): inhibition ratio” value worked out at 83%.

As to `O=C(C#Cc1ccc(-c2ccccc2)c(C(F)(F)F)c1)NC[C@@H](O)CO` [Example 36, N-[(2R)-2,3-dihydroxypropyl]-3-[2-(trifluoromethyl)[1,1′-biphenyl]-4-yl]prop-2-ynamide], in the assay with IRF pathway of THP-1, the IC50 came out at 615 nM. Besides, the “Inh (%): inhibition ratio” value with IFNβ production is on record as 85%.

Consider `O=C(C#Cc1ccc(-c2ccccc2)c(C(F)(F)F)c1)N1C[C@@H](O)[C@H](O)C1` [Example 43, 1-[(3R,4R)-3,4-dihydroxypyrrolidin-1-yl]-3-[2-(trifluoromethyl)[1,1′-biphenyl]-4-yl]prop-2-yn-1-one], for which the IC50 with IRF pathway of THP-1 amounted to 201 nM. Further, the “Inh (%): inhibition ratio” value in the assay on IFNβ production is 87%.

`O=C(C#Cc1ccc(-c2ccccc2)c(C(F)(F)F)c1)N1C[C@H](O)[C@@H](O)C1` [Example 44, 1-[(3S,4S)-3,4-dihydroxypyrrolidin-1-yl]-3-[2-(trifluoromethyl)[1,1′-biphenyl]-4-yl]prop-2-yn-1-one]: the IC50 in the assay on IRF pathway of THP-1 is 174 nM. Also, the “Inh (%): inhibition ratio” value with IFNβ production was 82%.

As for `O=C(C#Cc1ccc(-c2ccccc2)c(C(F)(F)F)c1)N1CC(CO)(CO)C1` [Example 46, 1-[3,3-bis(hydroxymethyl)azetidin-1-yl]-3-[2-(trifluoromethyl)[1,1′-biphenyl]-4-yl]prop-2-yn-1-one], the half-maximal inhibitory concentration (IC50) with IRF pathway of THP-1 came to 150 nM. Moreover, the “Inh (%): inhibition ratio” value in the assay with IFNβ production worked out at 69%.

Take `N=S1(=O)CCN(C(=O)C#Cc2ccc(-c3ccccc3)c(C(F)(F)F)c2)CC1` [Example 99, 1-imino-4-{3-[2-(trifluoromethyl)[1,1′-biphenyl]-4-yl]prop-2-ynoyl}-1λ^6-thiomorpholin-1-one]: in the assay with IRF pathway of THP-1, the IC50 is 102 nM. Also, the “Inh (%): inhibition ratio” value in the assay with IFNβ production came out at 68%. Moreover, the “saliva production” value in the assay with saliva production is listed as “significantly improved saliva production”.

As to `CC(C)Oc1cc(C#CC(=O)N2C[C@@H](O)[C@@H](O)C2)ccc1-c1ccccc1C(F)(F)F` [Example 126], the IC50 in the assay with IRF pathway of THP-1 was found to be 372 nM.

On to `CN[C@@H]1CCN(C(=O)C#Cc2ccc(-c3ccccn3)c(C(F)(F)F)c2)C1` [Example 127, 1-[(3R)-3-(methylamino)pyrrolidin-1-yl]-3-[4-(pyridin-2-yl)-3-(trifluoromethyl)phenyl]prop-2-yn-1-one], for which, in the assay on IRF pathway of THP-1, the IC50 is 529 nM.

Turning to `C#CCOc1ccccc1-c1ccc(C#CC(=O)N2C[C@@H](O)[C@@H](O)C2)cc1C(F)(F)F` [Example 129, 1-[(3R,4S)-3,4-dihydroxypyrrolidin-1-yl]-3-{2′-[(prop-2-yn-1-yl)oxy]-2-(trifluoromethyl)[1,1′-biphenyl]-4-yl}prop-2-yn-1-one], the concentration for half-maximal inhibition (IC50) with IRF pathway of THP-1 was 242 nM.

Consider `CS(=O)(=O)NCCCN(CCO)C(=O)C#Cc1ccc(-c2ccccc2)c(C(F)(F)F)c1` [Example 130, N-(2-hydroxyethyl)-N-{3-[(methanesulfonyl)amino]propyl}-3-[2-(trifluoromethyl)[1,1′-biphenyl]-4-yl]prop-2-ynamide], for which the IC50 in the assay on IRF pathway of THP-1 worked out at 427 nM.

For the compound `O=C(C#Cc1ccc(-c2ccccc2C(F)(F)F)cc1)N1C[C@@H](O)[C@@H](O)C1` [Example 131, 1-[(3R,4S)-3,4-dihydroxypyrrolidin-1-yl]-3-[2′-(trifluoromethyl)[1,1′-biphenyl]-4-yl]prop-2-yn-1-one], the concentration for half-maximal inhibition (IC50) in the assay on IRF pathway of THP-1 was 578 nM.

Regarding `N=S1(=O)CCN(C(=O)C#Cc2cnc(-c3ccc(Cl)cc3C(F)(F)F)nc2)CC1` [Example 132], the IC50 in the assay on IRF pathway of THP-1 came out at 179 nM.

As to `O=C(C#Cc1ccc(-c2ccccc2C(F)(F)F)c(CO)c1)N1C[C@@H](O)[C@@H](O)C1` [Example 133, 1-[(3R,4S)-3,4-dihydroxypyrrolidin-1-yl]-3-[2-(hydroxymethyl)-2′-(trifluoromethyl)[1,1′-biphenyl]-4-yl]prop-2-yn-1-one], the IC50 in the assay on IRF pathway of THP-1 came to 731 nM.
